Data reported in US20240415845A1, “Compositions of Iboga Alkaloids and Methods of Treatment” (priority 2022, published 2024).
Where “and” joins values, the source holds several entries; their conditions need not be identical. Equal entries are not always repeated.

Columns and labels:
[1] = tested on: special operations veterans with combat and/or blast exposure; assay: MRI-based predicted brain age (machine learning model); format: in vivo, human; conditions: for brain age estimate: baseline 40.89 years; for Brain age, Cohen's d / Brain age, Mean Difference: N 24
From the text: In another aspect, a method for slowing or reversing brain aging in a subject is provided. In an embodiment, the subject is a person a healthy individual or is a person with TBI or with TBI and PTSD or a person at risk of one or both of TBI and PTSD. The method comprises treating the subject with ibogaine, as described herein. Neuroimaging data can be used to predict chronological age in healthy individuals, using machine learning. Neuroimaging-derived age predictions have been explored in the context of different brain diseases (Cole, et al., NeuroImage, 163:115-124 (2017): Cole, et al., Trends in Neurosciences, 40(12):681 (2017))). By training models on healthy individuals, brain-based predictions of age can be made in independent clinical samples. If ‘brain-predicted age’ is greater than an individual's chronological age, this is thought to reflect some aberrant accumulation of age-related changes to the brain (Id.). […] A predictive model of normal ageing defined using machine learning in healthy individuals, based on magnetic resonance imaging-derived estimates of gray matter and white matter (Id.) was applied to the MRI images from the subjects enrolled in the study of Example 1. […] There was a significant reversal of brain age from baseline to one month after treatment. The mean decrease in brain age was 1.3 years (corrected p=0.03).
At baseline, the brain age estimate for the 24 subjects was 40.89 years. […] The average decrease in brain age from baseline one month after treatment was 1.4 years.

[2] = tested on: male veterans with a history of TBI; assay: Pseudo-continuous arterial spin labeling (pcASL) MRI of cerebral blood flow; format: in vivo, human; conditions: baseline, first post-treatment scan and one month post-treatment; paired t-test; 18 subjects
Method: Arterial spin labeling (ASL) MR was used to measure cerebral blood flow in some of the subjects of the subjects enrolled in the study of Example 1. As described in Example 3, pseudo-continuous ASL (pcASL) was performed on the subject at baseline, about 1 week after treatment, and one-month after treatment. […] A first metric of interest was change in net quantity (mL/100 g tissue/min) of blood entering different regions of the brain. Images of the left posterior orbital gyrus, left anterior insula, left and right cerebral white matter at baseline and 1-week post treatment (images not shown) were analyzed and compared. […] A paired t-test across 3 time points—baseline (pre-treatment), 1 week post-treatment, and 1 month post-treatment—was employed.
Arterial spin labeling (ASL) MRW was used to measure cerebral blood flow.
A first metric of interest was change in net quantity (mL/100 g tissue/min) of blood entering different regions of the brain. Images of the left posterior orbital gyrus, left anterior insula, left and right cerebral white matter at baseline and 1-2 days post treatment (images not shown) were analyzed and compared.
A paired t-test across 3 time points-baseline (pre-treatment), 1-2 days post-treatment, and one month post-treatment-was employed.

[3] = in vivo; cited from earlier work
[4] = tested on: special operations veterans with combat and/or blast exposure; assay: Clinician-rated psychiatric assessments taken together (CAPS-5, MADRS, HAM-A); format: in vivo, human
Method: To further assess changes in comorbid psychiatric symptoms identified by the models, mean percent reduction, response rate, and remission rate according to the CAPS-5, MADRS and HAM-A (Table 1) were calculated. Response on the CAPS-5, MADRS, and HAM-A was defined as a reduction of at least 10 points (Mitchell, J. M. et al., Nat. Med. 27, 1025-1033(2021)), 50% (Leucht, S. et al., J. Affect. Disord. 210, 287-293 (2017)), and 50% (McIntyre, A. et al., Depress. Anxiety 24, 487-494 (2007)), respectively; remission as loss of diagnosis and a total score below 12 (Mitchell, J. M. et al. supra), <8 (Leucht, S. et al. supra), and <8(McIntyre, A. et al., supra), respectively. One participant's baseline scores met criteria for remission in all three scales and so were excluded from the calculation of response and remission rates, leaving 29 participants in these specific analyses.
The results were similar, with remission rates at one-month follow up of at least 67% (Table 1-3 in Example 1). To determine if the participants with more severe TBI history may be biasing results, a sensitivity analysis excluding the participants with non-mild TBI; results was done, again with the results largely unchanged (Table 1-4 in Example 1), with remission rates at one-month follow up of at least 85%.

[5] = tested on: special operations veterans with combat and/or blast exposure; conditions: in vivo
[6] = contrast 1 wk post − 1 mo. post
[7] = contrast immediate post (~1 wk) − baseline
[8] = one month after treatment, 24 subjects
[9] = one-week and one-month post, 29 participants

## CCC1CC2CC3c4[nH]c5ccc(OC)cc5c4CCN(C2)C13 (stereo not drawn) [ibogaine, Ibogaine]
[1]; Baseline & 1 wk. vs 1 mo., weights .5-.5-1
  Brain age, contrast Estimate: 1.220 years
[1]; Baseline vs. 1 wk and 1 mo., weights 1-.5-.5
  Brain age, contrast Estimate: 0.892 years
[1]; about one week after treatment, 24 subjects
  brain age estimate: 40.52 years
[1]; baseline to one month after treatment, corrected p=0.03 (FIG. 19A)
  mean decrease in predicted brain age: 1.3 years
[1]; contrast 1-mo. post − baseline
  Brain age, Cohen's d: −0.6137
  Brain age, Mean Difference: −1.408 Years
[1]; [6]
  Brain age, Cohen's d: −0.4729
  Brain age, Mean Difference: −1.031 Years
[1]; [7]
  Brain age, Cohen's d: −0.2114
  Brain age, Mean Difference: −0.3764 Years
[1]; [8]
  average decrease in brain age from baseline: 1.4 years
  brain age estimate: 39.48 years
[1]; one-month post treatment (FIG. 19D)
  estimated brain age compared to accelerated intermittent theta burst stimulation (aiTBS): reducing in estimated brain age
[2]
  changes in absolute cerebral blood flow: No significant changes
[3]
  people who may suffer from cardiac arrest when treated: Approximately 1 in 300
[4]; one-month follow up, excluding participants with non-mild TBI
  remission rates on CAPS-5, MADRS and HAM-A: at least 85%
[4]; one-month follow up, subgroups meeting criteria for the disorder assessed by the scale
  remission rates on CAPS-5, MADRS and HAM-A: at least 67%
[4]; [9]
  remission rates on CAPS-5, MADRS and HAM-A: at least 83%
  response rates on CAPS-5, MADRS and HAM-A: at least 93%
[4]; one-week and one-month post, all participants
  mean percent reductions on CAPS-5, MADRS and HAM-A: at least 81%
[4]; secondary analyses
  remission rates for comorbid PTSD, depression, and anxiety: around 80%
[5]
  Cognitive Flexibility Composite (average of D-KEFS TMT Condition 4, Color/Word Interference Condition 4, Verbal Fluency Category Switching) score: 56.6 ± 5.7 T score and 59.3 ± 5.0 T score
  Cognitive Flexibility Composite, effect size D: 0.74 and 0.43
  Cognitive Inhibition (D-KEFS Color/Word Interference, Condition 3) score: 59.9 ± 6.4 T score and 59.9 ± 7.5 T score
  Cognitive Inhibition (D-KEFS Color/Word Interference, Condition 3), effect size D: 1.22 and 0.62
  Detection (CPT-3 Detection) score: 41.2 ± 8.2 T score and 39.5 ± 7.5 T score
  Detection (CPT-3 Detection), effect size D: 0.86 and 1.05
  Phonemic Fluency (D-KEFS Verbal Fluency) score: 60.8 ± 10.3 T score and 64.0 ± 10.1 T score
  Problem Solving (D-KEFS TT, Total Achievement Score) score: 59.1 ± 7.1 T score and 59.5 ± 7.9 T score
  Problem Solving (D-KEFS TT, Total Achievement Score), effect size D: 0.44 and 0.49
  Reaction Time (CPT-3 Reaction Time) score: 44.1 ± 6.8 T score and 46.4 ± 8.1 T score
  Reaction Time (CPT-3 Reaction Time), effect size D: 0.52 and 0.29
  Semantic Fluency (D-KEFS Verbal Fluency) score: 60.2 ± 12.2 T score and 63.6 ± 7.8 T score
  Sustained Attention (CPT-3 Hit Reaction Time Block Change) score: 50.8 ± 7.9 T score and 51.2 ± 7.7 T score
  Verbal Memory (HVLT-R) score: 49.0 ± 9.2 T score and 53.1 ± 8.8 T score
  Visuospatial Memory (BVMT-R) score: 58.8 ± 7.1 T score and 58.3 ± 6.6 T score
  Visuospatial Memory (BVMT-R), effect size D: 0.32 and 0.50
  adverse effect on processing speed, individual D-KEFS results: no indication of an adverse effect
  declines across any neuropsychological performance domain: No declines
  executive functioning (inhibition, cognitive flexibility, problem-solving, phonemic fluency, working memory), effect sizes D: 0.31-1.22
  performance changes in language (semantic fluency): No significant performance changes
  processing speed, effect sizes D: 0.97-1.34
  slowing of reaction time, effect sizes D: 0.29-0.52
  sustained attention accuracy (detection), effect sizes D: 0.86-1.05
[5]; iv
  Processing Speed (PSI, WAIS-IV) score: 59.2 ± 9.7 T score and 61.6 ± 10.7 T score
  Processing Speed (PSI, WAIS-IV), effect size D: 0.97 and 1.34
  Working Memory (WMI, WAIS-IV) score: 57.0 ± 9.5 T score and 57.6 ± 9.2 T score
  Working Memory (WMI, WAIS-IV), effect size D: 0.37 and 0.31
